Laboratory results published in a melting point compilation (Tetko et al.; mined from patent text by program, amines drawn as free bases though some values may be those of a salt).

Compound CC(=O)c1ccc(OCCOc2ccc3ccccc3c2)c(F)c1 has a melting point of 171 to 173 °C.
Cc1ccc(C)c(C(=O)c2cc(Cl)ccc2Cl)c1 showed a melting point of 58 to 61 °C.
In the case of N#CCc1c(C(N)=O)ncn1C1CCCCO1 (centres undefined), the melting point is reported as 198 to 199 °C.
Compound O=C1CC(/C=C/c2ccncc2)=Nc2ccccc2N1Cc1ccccc1 has a melting point of 208 to 210 °C.
CC(C)=C(C#N)C(=O)NCc1ccc(Cl)c(Cl)c1 showed a melting point of 131 to 132 °C.
In the case of Cc1cccc(Nc2nc(N)ncc2S(=O)(=O)NC(C)(C)C)c1, the melting point is reported as 174 to 178 °C.
Compound C=CCNC(=O)C(C)N (centres undefined) has a melting point of 77.5 to 78 °C.
Work on O=C1CN(c2ccc(Cl)cc2)C(=O)N1S(=O)(=O)c1ccc(Cl)cc1 yielded a melting point of 239 to 240 °C.
Work on Cc1cccc(N(C=C(C#N)C#N)N=C(C#N)C#N)c1 yielded a melting point of 157 to 159 °C.
In the case of CC(=O)c1ccc(SC(=O)N(C)C)cc1OCC(=O)O, the melting point is reported as 173 to 174 °C.
CN(C)n1c(C(F)(F)F)n[nH]c1=O showed a melting point of 138 °C.
In the case of Cc1ccsc1C(=O)Cc1ccc(C(F)(F)F)cc1[N+](=O)[O-], the melting point is reported as 120 to 122 °C.
Work on COC1(OC)C=CC=CC1C1c2cccc(O)c2C(=O)c2c(O)cccc21 (centres undefined) yielded a melting point of 152 °C.
Work on CN(C)CC1CC(c2ccc(Cl)cc2)c2ccccc2O1 (centres undefined) yielded a melting point of 120 to 122 °C.
S=C(c1cc2n(c1)Cc1ccccc1-n1ccnc1-2)N1CCOCC1 gave a melting point of 210 to 211 °C.
C#CCn1cc(Cl)cnc1=O gave a melting point of 130 °C.
Compound Cc1cccc2cc(N3CCN(C)CC3)[nH]c(=O)c12 has a melting point of 224 to 225 °C.
In the case of COc1cc(Cc2cnc(N)nc2N)cc2c(C)cc(C)nc12, the melting point is reported as 289 to 290 °C.
For Oc1cccc(-c2nc(-c3cccnc3)no2)c1, the melting point was > 200 °C.
For Clc1nnc(CN2CC3(COc4cc5c(cc43)OCO5)c3ccccc32)s1 (centres undefined), the melting point was 194 to 197 °C.
N#CCCCCCCCCCOc1cccc(C(N)=O)c1 showed a melting point of 96 to 97 °C.
With COc1ccc(C(=O)Nc2cccnc2)c2c1oc1ccc(NC(C)=O)cc12 the melting point was > 250 °C.
In the case of CCOC(=O)c1cnc(Nc2cc(OC)c(OC)c(OC)c2)nc1-c1ccccc1, the melting point is reported as 64 to 65 °C.
In the case of CC(C)C(=O)N[C@@H](CSC(=O)C(C)C)C(=O)NCCSC(=O)c1ccccc1, the melting point is reported as 141 to 143 °C.
For COc1ccc(/C=C/c2nc3c(c(=O)n(C)c(=O)n3C)n2C)c(OC)c1C, the melting point was 253 to 254 °C.
With Cc1nnc(-c2cc3c(-c4ccccc4Cl)coc3cn2)o1 the melting point was 162 to 163 °C.
In the case of O=C1CCCc2ccc3ccccc3c21, the melting point is reported as 64 to 66 °C.
O=C(NCCn1cncn1)c1ccc(Br)cc1 showed a melting point of 160 to 162 °C.
In the case of COC(=O)c1ccc(Cn2nc(C(C)(C)C)cc2O)cc1, the melting point is reported as 161 to 162 °C.
In the case of Cc1cc(-c2ccc(S(C)(=O)=O)cc2)n(-c2ccc(F)cc2)c1F, the melting point is reported as 109 to 110 °C.
For COc1ccc(C2Nc3ccccc3C(=O)N2c2ccc(F)c(C(F)(F)F)c2)cn1 (centres undefined), the melting point was 167 to 168 °C.
O=C1C(c2ccc(O)cc2)=C(c2ccccc2)c2cc(O)cc(O)c21 gave a melting point of 128 to 130 °C.
With O=C(NC1N=C(c2ccccc2F)c2ccccc2NC1=O)c1cc2ccccc2o1 (racemic) the melting point was 289 to 291 °C.
Clc1ccc(Cl)c(CN2CCNc3ncc(C4=CCNCC4)cc32)c1 gave a melting point of 133 to 136 °C.
Work on COc1ccc(C(=O)c2c(O)c3ccccc3[nH]c2=O)cc1OC yielded a melting point of 235 to 236 °C.
CNC(=O)c1cc(-c2ccc(OC)cc2)nn(CC=Cc2ccccc2)c1=O gave a melting point of 160 to 161 °C.
Work on COc1ccc(CNc2nc3ccccc3c3[nH]c(C4CCCC4)nc23)cc1 yielded a melting point of 245 to 247 °C.
In the case of OCCC(O)OCn1cc(Cl)c2c(Cl)ncnc21 (centres undefined), the melting point is reported as 142 to 143 °C.
COc1ccc(C(=O)c2[nH]c3cc(Cl)ccc3c2CC(=O)O)cc1 gave a melting point of 187 to 190 °C.
For CCCCc1nc2c(N)nc3cccnc3c2n1CCNC(=O)c1c(C)noc1C, the melting point was 188 to 189 °C.
Compound CCCc1c(OCCC(=O)O)ccc(C(C)=O)c1O has a melting point of 142 to 146 °C.
CCC(C)OC1OCC(O)(N(CC(C)C)C(=O)N(CCCl)N=O)C(O)C1O (centres undefined) gave a melting point of 63 to 65 °C.
COCOc1ccc(-c2ccc3c(c2)C=C(C(=O)Nc2ccc(CN(C)C4CCOCC4)cc2)CCS3(=O)=O)cc1 showed a melting point of 227 to 229 °C.
In the case of COc1ncc(C(F)(F)F)cc1-c1cccn2nc(Cl)nc12, the melting point is reported as 183 to 185 °C.
In the case of COc1ccc(Sc2ccc3c(c2)OCC(=O)N3)cc1OC, the melting point is reported as 97 to 98 °C.
Cn1cc(Br)cc(Br)c1=O showed a melting point of 87 to 88 °C.
C=CC(=O)OCc1cn(CCCCCCCCCCCCCCCC)nn1 showed a melting point of 72 to 73 °C.
For Cc1ccc(OC2SCC(O)C(O)C2O)c(-c2ccoc2)n1 (centres undefined), the melting point was 162 °C.
O=C1Nc2cc(C(F)(F)F)cc(C(F)(F)F)c2C1(O)c1cc(Cl)ccc1O (centres undefined) gave a melting point of 191 to 193 °C.
Work on COC(=O)C1C(=O)CCC1CSc1ccccc1 (centres undefined) yielded a melting point of 41 to 42 °C.
With CC(C)(C(=O)O)C1OCCc2ccccc21 (centres undefined) the melting point was 110 to 116 °C.
With O=C(O)c1cc(Cn2cc(C3c4ccccc4C=Cc4ccccc43)c(=S)[nH]c2=O)ccc1O the melting point was > 240 °C.
Work on Cc1cccc(-c2cc(Cl)cc3c2OC(CN=[N+]=[N-])C3)c1 (centres undefined) yielded a melting point of 48 to 50 °C.
In the case of COc1ccc2c(c1)[C@@H](O)[C@H](Br)CO2 (relative stereo), the melting point is reported as 67 to 72 °C.
Work on COC(=O)C=C1c2ccccc2C=C(OC)c2sccc21 yielded a melting point of 124 to 125 °C.
In the case of CC(=O)OCCc1ccc(NC(=O)OCc2ccccc2)cc1, the melting point is reported as 148 to 149 °C.
Cc1cccc(-c2csc(N3CCN(C(=O)Nc4cccnc4)CC3)n2)c1 showed a melting point of 157 to 158 °C.
CCc1cccc(C)c1CNc1cc(C(=O)O)cc2c1nc(COC)n2C showed a melting point of 275 to 278 °C.
For Clc1nc(SCc2ccccc2)ncc1Br, the melting point was 56 to 57 °C.
CCOC(=O)C1=C(C)NC(c2ccco2)=C(C(=O)OCC)C1c1cccc([N+](=O)[O-])c1 (centres undefined) showed a melting point of 130 to 131 °C.
For CCOC(=O)C=CC1C(C(=O)O)C1(C)C (centres undefined), the melting point was 96 °C.
Compound C=CCOc1ccc(OC2CCCCO2)c2c1CCC(=O)N2 (centres undefined) has a melting point of 113 to 115 °C.
In the case of N#Cc1cc(C(=O)CCl)cs1, the melting point is reported as 94 to 98 °C.
Work on CCOC(=O)CCC1CCCC2CCC(=O)NC21 (centres undefined) yielded a melting point of 45 to 50 °C.
C=CCOc1cccc(C(=O)O)c1 gave a melting point of 78 to 79 °C.
For COc1cc(C(=O)Nc2c(Cl)cc3c(Br)n[nH]c3c2C(=O)NC2(C3CC3)CC2)n(-c2ncccc2Cl)n1, the melting point was 190 to 194 °C.
For COc1ccc2cccc3c2c1C(CCNC(C)=O)CC3 (centres undefined), the melting point was 98 °C.
With Cn1c(-c2ccccn2)cc(O)c(C(=N)c2ccccc2)c1=O the melting point was 242 to 245 °C.
With O=C1NC(=Cc2ccccc2F)C(=O)N1c1cc(F)ccc1F the melting point was 180 to 183 °C.
With COC(=O)CCc1nc(C=O)ccc1O the melting point was 92 to 95 °C.
c1ccc(-c2ccn3cnnc3n2)cc1 gave a melting point of 192 °C.
With NS(=O)(=O)c1ccc(-n2nc(C(F)(F)F)c(C3CC3)c2-c2ccccc2)cc1 the melting point was 173 to 174 °C.
With CCOC(=O)c1ccc(SCCCC2CCN(c3ccc(Cl)nn3)CC2)cc1 the melting point was 96.3 °C.
COc1cc(Cl)cc(C)c1Nc1nc2c(Cl)ccc(C(O)(C(C)(C)C)C(C)(C)C)c2n1C showed a melting point of 246 to 248 °C.
Work on N#CC1=Cc2ccccc2OC1 yielded a melting point of 44 to 45 °C.
Compound O=C1NC(=O)C(=Cc2ccc(OCCN(Cc3ccccc3)c3nc4ccccc4s3)cc2)S1 has a melting point of 185 to 188 °C.
With CCOC(=O)c1nc(O)n2c1c(=O)n(C)c1cc(C(F)(F)F)ccc12 the melting point was > 300 °C.
Cc1ccc(C)c(-c2ccc(C#N)c(C)c2)c1 showed a melting point of 96 to 97 °C.
O=C(NCc1ccc2c(c1)OCO2)c1ccc2n1Cc1ccccc1N(C(=O)CSc1ccc(Br)cc1)C2 gave a melting point of 154 to 155 °C.
With COc1ccc2c(c1)-c1ncc(C(=O)O)c(=O)n1CC2 the melting point was 237 to 239 °C.
Work on CCC1=C(Cl)C(=O)c2ccccc2C1=O yielded a melting point of 109 to 110 °C.
CC(C)(C)c1cc(CCC(=O)NCc2cccc(NC(=N)c3cccs3)c2)cc(C(C)(C)C)c1O gave a melting point of 163 to 164 °C.
Compound COc1cc(CC(=O)NCCOc2ccc(C(=O)O)cc2OC)ccc1NC(=O)Nc1ccccc1C has a melting point of 180 to 181 °C.
O=C1CCCCC1=CC(=O)c1ccccc1 gave a melting point of 75 to 77 °C.
CCCCCc1cc(O)c2c(c1)OC(C)(C)C1=C2CC(C)(C)S1 gave a melting point of 109 to 110 °C.
In the case of COc1ccc(N2CCN(N=O)CC2)cc1, the melting point is reported as 94.5 °C.
With CCOC(=O)c1c(CC)nn2ccc3c(c12)CCO3 the melting point was 110 to 111 °C.
In the case of CCCCCCCCCCCCCCCCCCOc1cccc(NCC(=O)OCc2ccccc2)c1, the melting point is reported as 55 to 60 °C.
With CCCC(NOCC)=C1C(=O)CC(c2cc3ccccc3s2)CC1=O (centres undefined) the melting point was 73 to 76 °C.
For C#CC[C@H](c1nc2cc(Cl)ccc2c(=O)n1Nc1ccccc1)N(CCCN)C(=O)c1cc(F)c(F)c(F)c1F, the melting point was 155 to 158 °C.
For NC(=O)c1cn(C(CO)CCc2cccc(C(F)(F)F)c2)cn1 (centres undefined), the melting point was 103 to 106 °C.
In the case of CCNC(=O)c1cc([N+](=O)[O-])ccc1Oc1cncc(Cl)c1, the melting point is reported as 165 to 167 °C.
For COC(=O)CCNC(=O)c1ccc2c(c1)nc(-c1ccc(C(=N)N)cc1)n2CCC(c1ccccc1)c1ccccc1, the melting point was > 200 °C.
With CC(CO)N1c2ccccc2Sc2ccc(C#N)cc21 (racemic) the melting point was 123 °C.
Compound C#Cc1ccnc(-c2ccc(-c3cc(C#C)ccn3)c([N+](=O)[O-])c2)c1 has a melting point of 178 to 180 °C.
Compound COc1cc2c(cc1OC)CCCC(C(=O)N1CCN(Cc3cc(OC)c(OC)c(OC)c3)CC1CN(C)C)=C2 (centres undefined) has a melting point of 167 to 169 °C.
With Clc1ccc(-c2cncn3ncnc23)cc1 the melting point was 154 to 155 °C.
COc1cc(CC(=O)Nc2nn(-c3ccccc3)cc2C=O)ccc1OCc1nc(-c2ccccc2)oc1C showed a melting point of 156 to 158 °C.
Work on Cc1oc2c(C)c(C)c(NC(=O)c3ccc(F)cc3)c(C)c2c1-c1ccccc1 yielded a melting point of 242 to 245 °C.
In the case of Nc1cc(-c2cccnc2)c[nH]c1=O, the melting point is reported as 280 to 290 °C.
With COc1ccc2c3c(c(=O)oc2c1)CN(Cc1ccccc1Cl)CC3 the melting point was 137 to 139 °C.
Work on CC1(C)CN(CCN2CC(C)(C)N(O)C(C)(C)C2=O)C(=O)C(C)(C)N1O yielded a melting point of 193 °C.
For CC(=O)N[C@H]1CC[C@H](CCN2CCN(c3nc(C)cc4c3CCO4)CC2)CC1, the melting point was 218 °C.
Work on Cc1cc(C)cc(C(=O)N2CCC(=O)CC2Cc2ccccc2)c1 (centres undefined) yielded a melting point of 108 °C.
